Here are results for 2 compounds from patent EP0542355A1, “Amorphous (Quinolin-2-ylmethoxy)indoles as leukotriene antagonists” (MERCK FROSST CANADA INC., priority 1991, dated 1993).

A short description of data set [1]: Stability of saturated aqueous solutions against precipitation of the crystalline form. Format: physicochemical. As to conditions: do not readily precipitate the crystalline form even when seeded with the crystalline allotrope.
Data set [2] is described as follows: Stability of the solid on storage, followed by water solubility. Format: physicochemical. Conditions: solid stored three months at 30°C and 60°C at ambient humidity and at 30°C/79% relative humidity. The method, then: (§1) No change in water solubility has been observed even when stored for three months at 30°C and 60°C at ambient humidity and at 30°C/79% relative humidity.

Data set [3] in a line: Aqueous solubility. Format: physicochemical. The method, then: Solubility was measured by stirring […] in water (10 mL) of amorphous L-708 at room temperature. At 48 hrs. 1 mL of the suspension was drawn and centrifuged. The supernatant was diluted and content of amorphous L-708 was measured by both U.V. spectrophotometry and by HPLC. This gave a concentration of 55 mg/mL.

Data set [4] is described as follows: Stability to chemical decomposition. Format: physicochemical. As to conditions: in the solid form and in aqueous solution. The method, then:
as §1

Data set [5] in a line: Bioavailability. Format: in vivo.

Each structure is given as a SMILES string. Several values for one entry are separate records, joined by “and”; a condition that tells them apart may be missing. Equal entries are not always repeated. Structures can show the parent of a compound that is named as a salt. Where two headings read alike, the source gives them in different places.

Turning to `CC(C)(C)Sc1c(CC(C)(C)C(=O)O)n(Cc2ccc(Cl)cc2)c2ccc(OCc3ccc4ccccc4n3)cc12` [amorphous L-708, Amorphous 3-[N-(p-chlorobenzyl)-3-(t-butylthio)-5-(quinolin-2-ylmethoxy)indol-2-yl]-2,2-dimethylpropanoic acid, sodium salt], in data set [1], the “stability of saturated aqueous solutions” value is “highly stable”. Moreover, in data set [2], the “change in water solubility on storage” value is listed as “No change”. In addition, the solubility in data set [3] (de-ionized water, in de-ionized water at 25°C, read-out: solubility) was 55 mg/mL; in data set [3] (water, not tested higher, read-out: Solubility in water), ≥ 3000 µg/mL and ≥ 5000 µM. Further, in data set [3] (water, 100 mg/mL stirred in water (10 mL) at room temperature, 48 hrs, U.V. spectrophotometry and HPLC, read-out: Solubility (concentration in supernatant)), the solubility at 48 h is 55 mg/mL. Further, the “stability to chemical decomposition” value in data set [4] is given as “highly stable to chemical decomposition”. In data set [5] (compared with L-708 Na⁺ salt), the bioavailability result is “much more bioavailable than L-708 Na⁺ salt”.
As to `CC(C)(C)Sc1c(CC(C)(C)C(=O)O)n(Cc2ccc(Cl)cc2)c2ccc(OCc3ccc4ccccc4n3)cc12` [L-708 Na⁺ salt, Crystalline 3-[N-(p-chlorobenzyl)-3-(t-butylthio)-5-(quinolin-2-ylmethoxy)indol-2-yl]-2.2-dimethylpropanoic acid, sodium salt, reference compound], the solubility in data set [3] (water, crystalline sodium salt, read-out: aqueous solubility) was in the range of 0.005 to 0.03 mg/mL. The oral bioavailability result in data set [5] (oral) is on record as “low oral bioavailability”.
